Values quoted from earlier work in PMC10096175, “An In Vitro Antimicrobial, Anticancer and Antioxidant Activity of N–[(2–Arylmethylthio)phenylsulfonyl]cinnamamide Derivatives” (Molecules, 2023).
Values after ≈ are worked out from the molar mass of the structure shown.

Tests used:
[1] = tested on: human breast cancer MCF-7 cells; parameters: method as in PMID 30389289; conditions: cited from earlier work
[2] = tested on: mouse melanoma B16–F10 cell line; parameters: method as in PMID 21783370; conditions: cited from earlier work
S. aureus = tested on: S. aureus; parameters: method as in PMID 19231901; conditions: cited from earlier work
[3] = tested on: quorum sensing system of C. violaceum; parameters: method as in doi:10.1016/j.ibiod.2018.06.003; conditions: at 1 mM; cited from earlier work
E. coli = tested on: E. coli; parameters: method as in PMID 19231901; conditions: cited from earlier work

In the case of `O=C(/C=C/c1ccc2c(c1)OCO2)NS(=O)(=O)c1ccccc1` [(E)–3–(benzo[d][1,3]dioxol–5–yl)–N–(phenylsulfonyl)acrylamide], the IC50 [1] is listed as 0.17 µg/mL (≈ 0.513 µM).

For `O=C(/C=C/c1ccc(Br)cc1)NS(=O)(=O)c1ccc(F)cc1` [(E)–3–(4–bromophenyl)–N–(4–fluorophenylsulfonyl)acrylamide], the IC50 [2] is given as 1.2 µg/mL (≈ 3.12 µM).

For `COC(=O)/C=C/c1ccccc1` [methyl trans-cinnamate], the “Concentration that completely inhibited growth” value (S. aureus) is listed as 3.1 mM, the Quorum sensing inhibition [3] is listed as “completely inhibit” and the “Concentration that completely inhibited growth” value (E. coli) is listed as 6.2 mM.

For `O=C(/C=C/c1ccc(F)cc1)NS(=O)(=O)c1ccc(F)cc1` [(E)–3–(4–fluorophenyl)–N–(4-fluorophenylsulfonyl)acrylamide], the IC50 [2] is listed as 0.8 µg/mL (≈ 2.47 µM).
